The source of these data is ChEMBL document CHEMBL6103569, “Discovery of novel fluorine-containing parthenolide analogues as potential antitumor agents” (Eur J Med Chem, 2025).

A short description of assay [1]: Antiproliferative activity against human NCI-H820 cells assessed as inhibition of cell growth incubated for 72 hrs by MTT assay. In kind it is functional, cell-based. (Tetrazolium assays rely on reduction of a dye to a coloured formazan, in cell work by metabolically active cells.)
Assay [2] deals with Huh-7. In words: Antiproliferative activity against human Huh-7 cells assessed as inhibition of cell growth incubated for 72 hrs by MTT assay. Format: functional, cell-based.
The subject of assay [3] is PANC-1. Nature of the assay: Antiproliferative activity against human PANC-1 cells assessed as inhibition of cell growth incubated for 72 hrs by MTT assay. Format: functional, cell-based.
Assay [4] concerns NCI-H820. In words: Inhibition of colony formation in human NCI-H820 cells incubated for 7 to 10 days by crystal violet staining based analysis. In kind it is functional, cell-based. The settings on record: dose 0.2-5 µM, time 7-10 day.
The test system of assay [5] is Huh-7. In words: Inhibition of colony formation in human Huh-7 cells incubated for 7 to 10 days by crystal violet staining based analysis. In kind it is functional, cell-based. The following applies: dose 0.2-5 µM, time 7-10 day.
The test system of assay [6] is PANC-1. In words: Inhibition of colony formation in human PANC-1 cells incubated for 7 to 10 days by crystal violet staining based analysis. Format: functional, cell-based. The following applies: dose 0.2-5 µM, time 7-10 day.
Assay [7] in a line: Induction of apoptosis in human NCI-H820 cells assessed as viable cells at 2 uM incubated for 48 hrs by Annexin V/FITC staining based flow cytometry analysis (reference value: 98%). Format: functional. The following applies: read-out: Activity. (Flow cytometry measures light scatter and fluorescence of single cells or particles in a stream.)
A short description of assay [8]: Induction of apoptosis in human NCI-H820 cells assessed as early apoptotic cells at 2 uM incubated for 48 hrs by Annexin V/FITC staining based flow cytometry analysis (reference value: 0.012%). In kind it is functional.
The nature of assay [9]: Induction of apoptosis in human NCI-H820 cells assessed as late apoptotic cells at 2 uM incubated for 48 hrs by Annexin V/FITC staining based flow cytometry analysis (reference value: 0.025%). In kind it is functional.
Assay [10] can be described thus: Induction of apoptosis in human NCI-H820 cells assessed as necrotic cells at 2 uM incubated for 48 hrs by Annexin V/FITC staining based flow cytometry analysis (reference value: 0.060%). Format: functional.
The nature of assay [11]: Induction of apoptosis in human NCI-H820 cells assessed as viable cells at 5 uM incubated for 48 hrs by Annexin V/FITC staining based flow cytometry analysis (reference value: 98%). In kind it is functional. The settings on record: read-out: Activity.
The nature of assay [12]: Induction of apoptosis in human NCI-H820 cells assessed as early apoptotic cells at 5 uM incubated for 48 hrs by Annexin V/FITC staining based flow cytometry analysis (reference value: 0.012%). In kind it is functional.
The nature of assay [13]: Induction of apoptosis in human NCI-H820 cells assessed as late apoptotic cells at 5 uM incubated for 48 hrs by Annexin V/FITC staining based flow cytometry analysis (reference value: 0.025%). In kind it is functional.
Assay [14] in a line: Induction of apoptosis in human NCI-H820 cells assessed as necrotic cells at 5 uM incubated for 48 hrs by Annexin V/FITC staining based flow cytometry analysis (reference value: 0.060%). Format: functional.
A short description of assay [15]: Induction of apoptosis in human NCI-H820 cells assessed as early apoptotic cells at 10 uM incubated for 48 hrs by Annexin V/FITC staining based flow cytometry analysis (reference value: 0.012%). Format: functional.
Assay [16] in a line: Induction of apoptosis in human NCI-H820 cells assessed as late apoptotic cells at 10 uM incubated for 48 hrs by Annexin V/FITC staining based flow cytometry analysis (reference value: 0.025%). Format: functional.
A short description of assay [17]: Induction of apoptosis in human NCI-H820 cells assessed as necrotic cells at 10 uM incubated for 48 hrs by Annexin V/FITC staining based flow cytometry analysis (reference value: 0.060%). Format: functional.
For assay [18], the system named is NCI-H820. In words: Inhibition of Ki67 expression in human NCI-H820 cells incubated for 48 hrs by Western blot analysis. The following applies: dose <= 5.0 µM. In kind it is functional, cell-based. For orientation: A western blot detects proteins with antibodies after separation by electrophoresis.
The test system of assay [19] is NCI-H820. In words: Inhibition of Bcl-2 expression in human NCI-H820 cells incubated for 48 hrs by Western blot analysis. The settings on record: dose <= 5.0 µM. In kind it is functional, cell-based.
Assay [20] has as its system NCI-H820. In words: Inhibition of cell migration in human NCI-H820 cells assessed as decrease in migration rate incubated for 48 hrs by wound healing assay. Format: functional, cell-based. The following applies: dose <= 5.0 µM.
The test system of assay [21] is NCI-H820. Nature of the assay: Inhibition of cell migration in human NCI-H820 cells assessed as decrease in migration rate incubated for 48 hrs by transwell assay. Format: functional, cell-based. The following applies: dose <= 5.0 µM.
Assay [22] concerns NCI-H820. Nature of the assay: Upregulation of E-cadherin level in human NCI-H820 cells upto 5 uM incubated for 48 hrs by Western blot analysis. In kind it is functional, cell-based.
For assay [23], the system named is NCI-H820. Nature of the assay: Downregulation of Vimentin level in human NCI-H820 cells upto 5 uM incubated for 48 hrs by Western blot analysis. Format: functional, cell-based.
Assay [24] has as its system NCI-H820. Nature of the assay: Downregulation of STAT3 level in human NCI-H820 cells incubated for 48 hrs by Western blot analysis. The following applies: dose <= 5.0 µM. Format: functional, cell-based.
The target of assay [25] is Signal transducer and activator of transcription 3 (Homo sapiens) (UniProt P40763). In words: Inhibition of STAT3 phosphorylation in human NCI-H820 cells incubated for 48 hrs by Western blot analysis. The settings on record: dose <= 5.0 µM. Format: cell-based.
Assay [26] has as its system NCI-H820. In words: Antitumor activity against human NCI-H820 cells xenografted in BALB/c nude mouse model assessed as reduction in tumor volume at 30 mg/kg, po administered every 2 days. In kind it is functional, organism-based. The following applies: time 2.0 day.
Assay [27] relates to NCI-H820. Nature of the assay: Antitumor activity against human NCI-H820 cells xenografted in BALB/c nude mouse model assessed as reduction in tumor weight at 30 mg/kg, po administered every 2 days. In kind it is functional, organism-based. The following applies: time 2.0 day.

The structures appear in SMILES notation. Calls of active or inactive are those of the source. The rule behind the calls is not given here.

Chain of Signal transducer and activator of transcription 3 (Homo sapiens) (P40763 whole entry): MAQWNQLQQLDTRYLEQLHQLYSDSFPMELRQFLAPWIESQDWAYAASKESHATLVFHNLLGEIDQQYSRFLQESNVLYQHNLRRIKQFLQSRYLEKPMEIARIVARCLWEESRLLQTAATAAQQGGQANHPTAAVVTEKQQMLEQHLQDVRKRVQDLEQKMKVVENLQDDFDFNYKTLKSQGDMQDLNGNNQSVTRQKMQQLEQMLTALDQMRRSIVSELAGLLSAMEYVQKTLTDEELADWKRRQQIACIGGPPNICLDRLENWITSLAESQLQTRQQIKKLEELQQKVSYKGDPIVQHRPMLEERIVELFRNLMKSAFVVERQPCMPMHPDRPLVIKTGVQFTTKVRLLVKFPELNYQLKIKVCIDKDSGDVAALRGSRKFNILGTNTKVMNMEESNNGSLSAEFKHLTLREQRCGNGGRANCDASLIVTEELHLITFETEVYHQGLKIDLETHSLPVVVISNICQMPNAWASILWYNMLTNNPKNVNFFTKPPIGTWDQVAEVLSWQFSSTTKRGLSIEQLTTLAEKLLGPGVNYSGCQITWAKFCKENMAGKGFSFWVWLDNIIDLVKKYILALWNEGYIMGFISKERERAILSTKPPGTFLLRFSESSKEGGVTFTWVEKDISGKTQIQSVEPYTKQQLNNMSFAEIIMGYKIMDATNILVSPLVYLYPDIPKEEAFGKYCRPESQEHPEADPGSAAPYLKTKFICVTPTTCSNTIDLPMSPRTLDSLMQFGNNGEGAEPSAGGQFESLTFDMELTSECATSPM

`C=C1C(=O)O[C@H]2[C@H]1CC/C(CC(F)(F)F)=C\CC[C@@]1(C)O[C@@H]21`: the IC50 (usually the midpoint of a concentration-inhibition curve) worked out at 2.66 µM in [1] (Homo sapiens, NCI-H820, 72 h); 2.36 µM in assay [2] (Homo sapiens, Huh-7, 72 h); 2.16 µM in assay [3] (Homo sapiens, PANC-1, 72 h). The inhibition entry in assay [4], in assay [5] and in assay [6] was “Active” each time. Further, the viability at 2 µM in assay [7] worked out at 64%. In addition, the Activity turned out to be 0.14% in [8]; 0.51% in assay [9]; 1.4% in assay [10]; 2.77% in [12]; 6.54% in [13]; 2.07% in [14]. Moreover, the Activity is 0.06% in assay [15], 5.24% in assay [16], 0.55% in assay [17] and “Dose-dependent-effect” in [24]. Further, in [11], the viability at 5 µM turned out to be 86.8%. In addition, the inhibition result in [18], in assay [19], in assay [20], in [21] and in assay [25] was “Dose-dependent-effect” in each case. Further, the result in [22] and in [23] was Active.
For the compound `CN(C)CC1C(=O)O[C@H]2[C@H]1CC/C(CC(F)(F)F)=C\CC[C@@]1(C)O[C@@H]21` (some centres undefined) [listing 1 of 3 here], the IC50 is 3.86 µM in [1] (Homo sapiens, NCI-H820, 72 h); 2.64 µM in assay [2] (Homo sapiens, Huh-7, 72 h); 3.8 µM in [3] (Homo sapiens, PANC-1, 72 h).
With `C[C@@]12CC/C=C(/CC(F)(F)F)CC[C@H]3C(CN4CC[C@@H](O)C4)C(=O)O[C@@H]3[C@@H]1O2` (some centres undefined), the IC50 came out at 3.95 µM in assay [1] (nci-h820), 3.1 µM in assay [2] (huh-7) and 3.23 µM in [3] (panc-1).
Turning to `C=C1C(=O)O[C@H]2[C@H]1CC/C(CO)=C\CC[C@@]1(C)O[C@@H]21`, the IC50 in assay [1] (Homo sapiens, NCI-H820, 72 h) amounted to 13.3 µM; in [2] (Homo sapiens, Huh-7, 72 h), 10.1 µM; in assay [3] (Homo sapiens, PANC-1, 72 h) it was 15.6 µM.
For `CN1CCN(CC2C(=O)O[C@H]3[C@H]2CC/C(CC(F)(F)F)=C\CC[C@@]2(C)O[C@@H]32)CC1` (some centres undefined) the same measures were 30.7 µM, 14.9 µM and 15.8 µM.
Regarding `CN(C)CC1C(=O)O[C@H]2[C@H]1CC/C(CC(F)(F)F)=C\CC[C@@]1(C)O[C@@H]21` (some centres undefined) [listing 2 of 3 here], the outcome in [26] and in assay [27] was Active.
As to `C[C@@]12CC/C=C(/CC(F)(F)F)CC[C@H]3C(CN4CCCC4)C(=O)O[C@@H]3[C@@H]1O2` (some centres undefined), the half-maximal inhibitory concentration (IC50) came out at 6.44 µM in [1] (nci-h820), 4.1 µM in assay [2] (huh-7) and 5.19 µM in [3] (panc-1).
For the compound `CCCN(C)CC1C(=O)O[C@H]2[C@H]1CC/C(CC(F)(F)F)=C\CC[C@@]1(C)O[C@@H]21` (some centres undefined), the IC50 in [1] (Homo sapiens, NCI-H820, 72 h) was found to be 5.52 µM; in assay [2] (Homo sapiens, Huh-7, 72 h) it was 3.13 µM; in assay [3] (Homo sapiens, PANC-1, 72 h), 3.62 µM.
As for `CN(C)CC1C(=O)O[C@H]2[C@H]1CC/C(CC(F)(F)F)=C\CC[C@@]1(C)O[C@@H]21` (some centres undefined) [listing 3 of 3 here], the IC50 in assay [1] (nci-h820) stood at 4.38 µM; in [2] (huh-7), 3.08 µM; in [3] (panc-1) it was 4.38 µM.
With `C=C1C(=O)O[C@H]2[C@H]1CC/C(CSC#N)=C\CC[C@@]1(C)O[C@@H]21`, the IC50 in [1] (Homo sapiens, NCI-H820, 72 h) was determined as 2.04 µM; in [2] (Homo sapiens, Huh-7, 72 h), 1.5 µM; in [3] (Homo sapiens, PANC-1, 72 h), 1.35 µM.
Regarding `C[C@@]12CC/C=C(/CC(F)(F)F)CC[C@H]3C(CN4CCC[C@H]4CO)C(=O)O[C@@H]3[C@@H]1O2` (some centres undefined), the IC50 in assay [1] (Homo sapiens, NCI-H820, 72 h) was determined as 4.53 µM; in assay [2] (Homo sapiens, Huh-7, 72 h), 3.67 µM; in assay [3] (Homo sapiens, PANC-1, 72 h), 4.57 µM.
